pEC50: −log10 of the molar value. Values after ≈ are worked out from the molar mass of the structure shown. Structures can show the parent of a compound that is named as a salt. Where two headings read alike, the source gives them in different places.
Columns and labels:
hPPARγ = biological target: T1, hPPARγ (Homo sapiens, UniProt P37231); test: GAL4-hPPAR transactivation assay (PPARγ); type: cell-based; conditions: HEK293T cells, pFA-hPPARγ/GAL4 + pFR-SEAP reporter, about 48 hours
T1 construct: expressed in transfected cells; host or cells: HEK293T
T1 sequence (P37231 238-503 limits assumed): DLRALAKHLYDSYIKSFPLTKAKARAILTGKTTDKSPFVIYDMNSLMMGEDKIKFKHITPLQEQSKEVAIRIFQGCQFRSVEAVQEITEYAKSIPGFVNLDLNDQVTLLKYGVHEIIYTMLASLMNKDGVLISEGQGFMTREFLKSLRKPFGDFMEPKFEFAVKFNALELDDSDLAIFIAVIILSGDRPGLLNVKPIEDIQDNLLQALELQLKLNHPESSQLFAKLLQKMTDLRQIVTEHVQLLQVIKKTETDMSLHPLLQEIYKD
From the text: (§1) GAL4-hPPAR Transactivation Assay
(§2) Plasmids for the expression of fusion protein for GAL4 DNA binding region-PPAR ligand binding region, pFA-hPPARα/GAL4 and pFA-hPPARγ/GAL4, were constructed by inserting the LBD cDNA of hPPARα and hPPARγ, respectively, into a commercially-available expression vector (pFA trans-activator plasmid, by STRATAGENE) having a GAL4 DNA binding region (GAL4 DBD) of yeast, under CMV promoter. For the expression of a reporter protein, used were a commercially-available plasmid (pFR-SEAP, by STRATAGENE) having a GAL4 responsive region (GAL4 UAS) in the upstream of cDNA of a secreted alkaline phosphatase (SEAP).
(§3) (b) Cell Culture and Transactivation Assay:
(§4) HEK293T cells were suspended in a high-glucose Dulbecco's modified Eagle's medium (DMEM) containing 10% fetal calf serum (by Hyclone), 100 U/mL penicillin G and […], and seeded in a 24-well cell culture plate in a density of 8×10^4 cells/well. The cells were cultured in a humidified atmosphere of 5% CO2 at 37° C. for 24 hours, and then subjected to transfection using Lipofectamine (by Invitrogen) and Plus reagent (by Invirogen) according to the manufacture's instruction in the absence of serum. Concretely, the cells were incubated in 225 μL of a transfection medium (OPTI-MEM, by Invitrogen) containing 0.48 μL of Lipofectamine, 0.030 μg of pFA-PPAR/GAL4 expression plasmid and 0.13 μg of pFR-SEAP, in a 5% CO2 atmosphere at 37° C. for 5 hours. Next, the same volume of a fresh high-glucose DMEM containing 10% fetal calf serum, 100 U/mL penicillin G, […] streptomycin sulfate and a test compound of two times the designated concentration was added to it, and the cells were incubated for about 48 hours. After the compound was solubilized in DMSO, control cells were incubated along with an equivalent concentration of DMSO. […] After the incubation, the culture supernatant was collected, and using a kit (reporter assay kit—SEAP, by TOYOBO), the SEAP activity was determined according to the manufacturer's instruction. Concretely, the same amount of an intrinsic alkaline phosphatase inhibitor was added to 5 μL of the culture supernatant and incubated at 37° C. for 30 minutes, and then 100 μL of a chemoluminescent substrate (Lumiphos PLUS, by Lumigen) was added thereto and incubated at 37° C. for 15 minutes, and thereafter the luminescence level was determined using a multi-label counter (ARVOsx, by Perkin Elmer). The values obtained as a result of the above operation and the concentrations of the test compound were plotted to obtain the EC50 value.

hPPARα = biological target: T2, hPPARα (Homo sapiens, UniProt Q07869); test: GAL4-hPPAR transactivation assay (PPARα); type: cell-based; conditions: HEK293T cells, pFA-hPPARα/GAL4 + pFR-SEAP reporter, about 48 hours
T2 construct: expressed in transfected cells; host or cells: HEK293T
T2 sequence (Q07869 239-466 limits assumed): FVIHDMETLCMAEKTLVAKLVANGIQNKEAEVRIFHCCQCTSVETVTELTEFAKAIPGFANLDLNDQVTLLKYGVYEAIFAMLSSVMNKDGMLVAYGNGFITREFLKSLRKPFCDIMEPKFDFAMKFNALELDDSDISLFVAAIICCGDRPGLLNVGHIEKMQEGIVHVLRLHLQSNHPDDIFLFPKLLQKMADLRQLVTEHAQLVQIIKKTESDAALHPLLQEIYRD
From the text: as §1, §2, §3, §4

[1] = Determination of solubility in JP-fluid 1 / JP-fluid 2 (HPLC); type: physicochemical; conditions: thermodynamic from solid, 12 hours or more
Procedure: Determination of Solubility
One mg of a test compound was put into a test tube, and 1 ml of the first fluid for Japanese Pharmacopoeia Disintegration Test Method (synthetic gastric juice, pH 1.2: hereinafter referred to as JP-fluid 1) or the second fluid for Japanese Pharmacopoeia Disintegration Test Method (synthetic intestinal juice, pH 6.8: hereinafter referred to as JP-fluid 2) was added thereto and shaken, and then statically left at room temperature for 12 hours or more. After thus left, the sample was filtered through a 0.45-μm membrane filter, and the filtrate was suitably diluted with a mixture of DMSO-purified water (1/1) to prepare solutions for solubility determination.
Apart from the above, 1 mg of the test compound was put into a 20-mL messflask, and dissolved in a mixture of DMSO-purified water (1/1) to prepare a standard solution of 50 μg/mL. The standard solution was stepwise diluted to give serial dilutions, and using the dilutions, a calibration curve was formed.
The above-mentioned solutions for solubility determination with the JP-fluid 1 or the JP-fluid 2 were analyzed through HPLC, and based on the calibration curve formed in the above, the solubility of the test compound was computed.
The HPLC condition is as follows:
HPLC System for Alliance Assay (by Waters, USA),
Feed Pump: 2795 separation module,
UV Detector: 2996 photodiode array detector,
Column: ODS-type C18 column (3.5 μm, 3.0 mm ID×30 mm),
Column Temperature: 60° C.,
Mobile Phase A: pH 4.5, 10 mM acetate buffer,
Mobile Phase B: 50% acetic acid-acetonitrile mixture (1/999),
Gradient Condition: mobile phase A/B ratio, 95/5 to 10/90,
Sample Temperature: 25° C.,
Detection Wavelength: maximum absorption wavelength within a range of 220 to 420 nm.

[2] = Lipid solubility: octanol / pH 7.4 phosphate buffer partition coefficient; type: physicochemical; conditions: n-octanol / pH 7.4 isotonic phosphate buffer, read-out: log D (pH 7.4)
Procedure: An equi-volume mixture of n-octanol (hereinafter referred to as octanol) and pH 7.4 isotonic phosphate buffer (hereinafter referred to as aqueous phase) was shaken in a suitable vessel, then statically left for 24 hours or more, and the upper layer (water-saturated octanol) and the lower layer (octanol-saturated water) were separately collected.
1 mg of a test compound was put into a test tube, and 5 ml of the water-saturated octanol was added thereto, ultrasonicated for 10 minutes and then stirred for about 30 seconds. In case where an insoluble substance was seen, then the liquid was filtered through a 0.45-μm membrane filter. 2 mL of the water-saturated octanol solution of the test compound was taken into a test tube, 2 mL of the octanol-saturated water was added thereto and shaken for 30 minutes. Then, this was centrifuged to separate into an upper layer (octanol phase) and a lower layer (aqueous phase), which were then separately collected.
The octanol phase and the aqueous phase were suitably diluted with DMSO, and the concentration of the test compound therein was determined through UV-detection HPLC or MS-detection HPLC.
From the concentration measured in each phase and the dilution ratio of each phase, the partition coefficient was derived through computation.
In case where the solubility in water of the test compound is estimated to be high, then the test compound is dissolved in the octanol-saturated water and then the water-saturated octanol is added thereto, shaken and centrifuged, and the upper layer (octanol phase) and the lower layer (aqueous phase) are separately collected to determine the concentration of the test compound.
The details of the HPLC apparatus and its operation condition are as follows: […]

[3] = db/db mice, as compared with pioglitazone; cited from earlier work
[4] = in vivo; cited from earlier work
[5] = patients associated with type II diabetes; cited from earlier work
[6] = fassgf or other biorelevant, synthetic intestinal juice, pH 6.8, room temperature, read-out: Solubility JP-fluid 2
[7] = simulated gastric fluid, synthetic gastric juice, pH 1.2, room temperature, read-out: Solubility JP-fluid 1

pEC50 (hPPARγ)	pEC50 (hPPARα)	solubility [1, 6] [µg/mL]	solubility [1, 7] [µg/mL]	logD [2]	SMILES	body weight increase [3]	high-density lipoprotein (HDL) [4]	plasma triglyceride [4]	body weight increase or fluid accumulation [5]
6.23	7.89	> 1000	490	2.7	Cc1oc(-c2cccc(Br)c2)nc1CN(Cc1ccc(OC(C)(C)C(=O)O)cc1)Cc1nccs1 [Example 1-(2), 2-[4-[[[2-(3-Bromophenyl)-5-methyloxazol-4-ylmethyl]thiazol-2-ylmethylamino]methyl]phenoxy-2-methylpropionic acid hydrochloride]	–	–	–	–
6.74	8.32	< 3	930 (≈ 1690 µM)	2.5	Cc1oc(-c2cccc(Br)c2)nc1CN(Cc1ccncc1)Cc1ccc(OC(C)(C)C(=O)O)cc1 [Example 4-(2), 2-[4-[[[2-(3-Bromophenyl)-5-methyloxazol-4-ylmethyl]pyridin-4-ylmethylamino]methyl]phenoxy]-2-methylpropionic acid]	–	–	–	–
6.66	8.59	680	520	2.3	Cc1oc(-c2cccc(Br)c2)nc1CN(Cc1ccc(OC(C)(C)C(=O)O)cc1)Cc1cscn1 [Example 5-(2), 2-[4-[[[2-(3-Bromophenyl)-5-methyloxazol-4-ylmethyl]thiazol-4-ylmethylamino]methyl]phenoxy]-2-methylpropionic acid hydrochloride]	–	–	–	–
8.26	8.43	> 870	> 870	1.8	Cc1cc(CN(Cc2ncco2)Cc2nc(-c3ccccc3)oc2C)cc(C)c1OC(C)(C)C(=O)O [Example 13-(2), 2-[2,6-Dimethyl-4-[[(5-methyl-2-phenyloxazol-4-ylmethyl)oxazol-2-ylmethylamino]methyl]phenoxy]-2-methylpropanoic acid]	–	–	–	–
8.06	8.62	480 (≈ 949 µM)	> 490	2.6	Cc1cc(CN(Cc2nccs2)Cc2nc(-c3ccccc3)oc2C)cc(C)c1OC(C)(C)C(=O)O [Example 16-(2), 2-[2,6-Dimethyl-4-[[(5-methyl-2-phenyloxazol-4-ylmethyl)thiazol-2-ylmethylamino]methyl]phenoxy]-2-methylpropanoic acid]	–	–	–	–
7.48	8.54	> 710	> 710	1.1	Cc1nnc(CN(Cc2cc(C)c(OC(C)(C)C(=O)O)c(C)c2)Cc2nc(-c3ccccc3)oc2C)o1 [Example 18-(2), 2-[2,6-Dimethyl-4-[[(5-methyl-[1,3,4]oxadiazol-2-ylmethyl)-(5-methyl-2-phenyloxazol-4-ylmethyl)amino]methyl]phenoxy]-2-methylpropanoic acid]	–	–	–	–
8.16	8.57	> 710	650 (≈ 1290 µM)	1.8	Cc1noc(CN(Cc2cc(C)c(OC(C)(C)C(=O)O)c(C)c2)Cc2nc(-c3ccccc3)oc2C)n1 [Example 19-(3), 2-[2,6-Dimethyl-4-[[(3-methyl-[1,2,4]oxadiazol-5-ylmethyl)-(5-methyl-2-phenyloxazol-4-ylmethyl)amino]methyl]-phenoxy]-2-methylpropanoic acid]	–	–	–	–
–	–	–	–	–	COc1ccc(CC2SC(=O)NC2=O)cc1C(=O)NCc1ccc(C(F)(F)F)cc1 (centres unmarked) [KRP-297]	significantly inhibits the body weight increase	–	–	–
–	–	–	–	–	Cc1oc(-c2ccc(-c3ccccc3)cc2)nc1CCOc1ccc(OC(C)(C)C(=O)O)cc1 [LY465608]	–	dose-dependently increases	lowers	–
–	–	–	–	–	CCc1ccc(CCOc2ccc(CC3SC(=O)NC3=O)cc2)nc1 (centres unmarked) [Pioglitazone, pioglitazone]	–	–	–	observed in some patients
7.32	7.36	10 (≈ 17.9 µM)	240 (≈ 430 µM)	4.4	Cc1cc(CN(Cc2ccco2)Cc2sc(-c3ccc(C(F)(F)F)cc3)nc2C)ccc1OC(C)(C)C(=O)O [SKB-compd, reference compound]	–	–	–	–

Reference: patent US20070208021A1, “Phenoxyacetic Acid Derivatives and Drug Comprising The Same” (DAIICHI PHARMACEUTICAL CO., LTD., priority 2004, published 2007)
